Earlier results as cited in paper PMC11542186, “Pin1 WW Domain Ligand Library Synthesized with an Easy Solid-Phase Phosphorylating Reagent” (Biochemistry, 2024).
Where a SMILES comes first, the peptide text is derived from it. [ ]: non-standard residue; d: D form. pT = C[C@@H](OP(=O)(O)O)[C@H](N)C(=O)O

Biological target: isolated Pin1 WW domain
Set-up: method as in PMID 16033261
Conditions: measured by NMR for the isolated Pin1 WW domain; cited from earlier work

Compound: CC(=O)N[C@H](C(=O)N1CCC[C@H]1C(N)=O)[C@@H](C)OP(=O)(O)O [Ac–pThr–Pro–NH2] (Ac-[pT]-Pro-NH2)
- Kd: 150 µM
